Test system: patients with relapsing multiple sclerosis
Experiment: Phase 2b dose-finding study: number of new or enlarging T2 lesions by brain MRI
Conditions: for Number of new/enlarging T2 lesions, mean (SD): Cohort 1 (all doses)
[1] = 5 mg daily, after 12 weeks of treatment
[2] = 15 mg daily, after 12 weeks of treatment
[3] = 30 mg daily, after 12 weeks of treatment
[4] = 60 mg daily, after 12 weeks of treatment

Method: New T1 Gd-enhancing hyperintense and new and enlarging T2 lesions are evaluated at each visit as per the SoA (Table 1), comparing lesion count to that from the previous MRI scan. Unless specified otherwise, the baseline brain MRI is used as the reference to assess all MRI-derived endpoints. The baseline MRI is the last MRI performed before the randomization visit. Standardized endpoint evaluation is assured by central review of brain MRI scans. Blinded central review is performed for all MRI-derived endpoints. Magnetic resonance imaging reviewers are blinded to treatment assignments and to other participant data.
For the number of new or enlarging T2 lesions, descriptive summary statistics over time (4, 8, 12, and 16 weeks) is provided for each of the 4 BTK inhibitor doses. Further, a similar MCP-Mod approach is explored if it is deemed reasonable to extrapolate the Week 4 data from Cohort 2 to the Week 12 placebo data.
For each secondary endpoint, a similar negative binomial model and the MCP-Mod procedure were used. As it is reasonable to assume a constant rate of lesion formation over 12 weeks under placebo treatment, the same approach as that utilized for the primary endpoint was used, i.e., using the Week 4 data in Cohort 2 as the Week 12 placebo data while accounting for within-participant correlation. Descriptive summary statistics over time were provided for each of the 4 BTK inhibitor dose groups.
Magnetic resonance imaging (MRI) scans were obtained at screening and every 4 weeks for 16 weeks.
OUTCOMES: The outcomes evaluated in this example include measuring the incidence of relapse during 4-week placebo run-in and run-out, the number of new Gd-enhancing T1 lesions detected with magnetic resonance imaging (MRI) at Weeks 4, 8 and 16, the number of new or enlarging T2 lesions measured at Weeks 4, 8 and 16, and the plasma CD19+B-cell count measured in the placebo run-out cohort at baseline, 1 hour after the first dose, then at Week 12 and Week 16 (FIG. 3).

## C=CC(=O)N1CCC[C@@H](n2c(=O)n(-c3ccc(Oc4ccccc4)cc3)c3c(N)nccc32)C1 [the BTK inhibitor, (R)-1-(1-acryloylpiperidin-3-yl)-4-amino-3-(4-phenoxyphenyl)-1H-imidazo[4,5-c]pyridin-2(3H)-one]
[1]
  New or enlarging T2 lesion count, Mean: 1.90
  New or enlarging T2 lesion count, Median: 0.00
5 mg once daily, end of 12 weeks of treatment
  Count of new and enlarging T2 lesions, observed mean (SD): 1.90 (3.97)
[2]
  New or enlarging T2 lesion count, Mean: 1.32
  New or enlarging T2 lesion count, Median: 1.00
15 mg once daily, end of 12 weeks of treatment
  Count of new and enlarging T2 lesions, observed mean (SD): 1.32 (1.83)
[3]
  New or enlarging T2 lesion count, Mean: 1.30
  New or enlarging T2 lesion count, Median: 0.00
30 mg once daily, end of 12 weeks of treatment
  Count of new and enlarging T2 lesions, observed mean (SD): 1.30 (4.90)
[4]
  New or enlarging T2 lesion count, Mean: 0.23
  New or enlarging T2 lesion count, Median: 0.00
  Patients with >=3 new or enlarging T2 lesions: 0 n
60 mg once daily, end of 12 weeks of treatment
  Count of new and enlarging T2 lesions, observed mean (SD): 0.23 (0.62)
60 mg, 12 weeks, 95% CI [68.39%, 96.41%], nominal p=0.0001
  Adjusted relative reduction in count of new and enlarging T2 lesions relative to placebo: 89.34%
60 mg, end of 12 weeks of treatment, 27 of 31 with evaluable MRI
  Participants with no new and enlarging T2 lesions: 87.1%
Week 12
  Number of new/enlarging T2 lesions, mean (SD): 0.58 (1.27)
After 4 weeks of placebo run-out
  Number of new/enlarging T2 lesions, mean (SD): 0.95 (2.72)
